Structures are written as SMILES. Structures can show the parent of a compound that is named as a salt.

The target in this test is T1, human C1s protein (Homo sapiens, UniProt P09871).
T1 construct: A104
T1 sequence (P09871 16-688): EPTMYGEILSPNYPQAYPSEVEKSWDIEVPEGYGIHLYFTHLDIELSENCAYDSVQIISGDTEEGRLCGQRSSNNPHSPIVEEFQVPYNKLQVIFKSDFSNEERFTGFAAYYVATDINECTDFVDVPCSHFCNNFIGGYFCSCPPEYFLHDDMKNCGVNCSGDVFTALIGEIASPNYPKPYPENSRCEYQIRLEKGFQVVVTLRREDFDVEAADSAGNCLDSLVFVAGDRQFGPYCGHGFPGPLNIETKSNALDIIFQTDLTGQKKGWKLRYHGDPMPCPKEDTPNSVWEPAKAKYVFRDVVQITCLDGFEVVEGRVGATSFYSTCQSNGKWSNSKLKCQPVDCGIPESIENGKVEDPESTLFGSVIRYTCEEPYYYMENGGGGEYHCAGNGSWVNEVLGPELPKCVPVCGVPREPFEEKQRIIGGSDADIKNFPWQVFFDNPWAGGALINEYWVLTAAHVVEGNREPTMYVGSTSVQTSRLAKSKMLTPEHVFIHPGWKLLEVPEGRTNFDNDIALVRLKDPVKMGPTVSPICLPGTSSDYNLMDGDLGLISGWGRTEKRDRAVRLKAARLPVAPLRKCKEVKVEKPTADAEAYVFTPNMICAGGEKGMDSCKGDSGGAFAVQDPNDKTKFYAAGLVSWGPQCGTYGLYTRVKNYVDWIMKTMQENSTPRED
In words: C1s enzymatic assay (hydrolysis of YLGR-Rh110-dPro). The following applies: substrate YLGR-Rh110-dPro 20 μM, 15 min pre-incubation, 60 min RT, fluorescence, read-out: hC1s pIC50 (converted). The format is biochemical. On the procedure:
Compound Testing in the C1s Enzymatic Assay
The enzyme cleaves the substrate with the release of Rh110 which is highly fluorescent. C1s inhibitors prevent the hydrolysis of the substrate thus resulting in a decrease of the signal.
On the day of the experiment 0.1 mg/mL BSA (Sigma, B4287) is added fresh to the buffer. The test item stock solutions are serially diluted 1:3 or 1:4 or 1:5 with DMSO, 11-point curves, in a 384-well compound plate. Nafamostat concentration curve is always included in the assay plate as a reference control.
The high controls are prepared dispensing in 0.25 μL DMSO in column 23, rows AH or AP and low controls with 0.25 μL of 0.1 M Nafamostat. […] The YLGR-Rh110-dPro substrate is prepared as 2× of the final assay concentration of 20 μM. 1/well of 2× enzyme solution is dispensed and pre-incubated for 15 min with the compounds. The enzymatic reaction is then started with 5 μL/well of the 2× substrate solution.
In the case of `Cc1nnc(N)c2ccc(-c3cc(B(O)O)ccc3NC(=O)C3CC(F)(F)CN3)cc12` (stereo in doubt) [Example 81, [3-(1-amino-4-methylphthalazin-6-yl)-4-[[(2S)-4,4-difluoropyrrolidine-2-carbonyl]amino]phenyl]boronic Acid], the IC50 was 4.57 nM.
The result for `Nc1cnnc2cc(-c3cc(B(O)O)cc4c3OCCC4)ccc12` [Example 145, [8-(4-aminocinnolin-7-yl)-3,4-dihydro-2H-chromen-6-yl]boronic Acid Formic Acid Salt] reads 3.09 nM.
The result for `COc1ccc(B(O)O)cc1-c1cnc2c(N)nccc2c1` [Example 130, [3-(8-amino-1,7-naphthyridin-3-yl)-4-methoxyphenyl]boronic Acid Formic Acid Salt] reads 67.6 nM; that for `CC(C)C1Cc2ccc(-c3ccc4c(N)cnnc4c3)cc2B(O)O1` (single isomer, unassigned) [Example 153], 1.66 nM.
`COc1ccc(B(O)O)cc1-c1ccc2c(N)nnc(C)c2c1` [Example 7, [3-(1-amino-4-methylphthalazin-6-yl)-4-methoxyphenyl]boronic Acid Formic Acid Salt]: the IC50 is 0.891 nM.
Turning to `COc1c(-c2ccc3c(N)nnc(C)c3c2)cc(B(O)O)cc1C(F)(F)F` [Example 49, [3-(1-amino-4-methylphthalazin-6-yl)-4-methoxy-5-(trifluoromethyl)phenyl]boronic Acid], the IC50 was 1.91 nM.
In the case of `COc1ccc(B(O)O)cc1-c1ccc2c(N)ccnc2c1` [Example 109, [3-(4-aminoquinolin-7-yl)-4-methoxyphenyl]boronic Acid] it was 871 nM; in that of `Cc1ccc(B(O)O)cc1-c1ccc2c(N)nnc(C)c2c1` [Example 10, [3-(1-amino-4-methylphthalazin-6-yl)-4-methylphenyl]boronic Acid Formic Acid Salt], 6.92 nM.
In the case of `COc1ccc(B(O)O)cc1-c1ccc2nccc(N)c2c1` [Example 129, [3-(4-aminoquinolin-6-yl)-4-methoxyphenyl]boronic Acid Formic Acid Salt], the IC50 was 6920 nM.
In the case of `Nc1cnnc2cc(-c3ccc(C(F)(F)F)c(B(O)O)c3)ccc12` [Example 88, [5-(4-aminocinnolin-7-yl)-2-(trifluoromethyl)phenyl]boronic Acid] it was 5.75 nM; in that of `CC(C)CCC(=O)Nc1ccc(B(O)O)cc1-c1ccc2c(N)cnnc2c1` [Example 65, [3-(4-aminocinnolin-7-yl)-4-(4-methylpentanamido)phenyl]boronic Acid Formic Acid Salt], 57.5 nM.
The result for `Nc1cnnc2cc(-c3cc(B(O)O)ccc3OCC3CCCO3)ccc12` (centres unmarked) [Example 82, [3-(4-aminocinnolin-7-yl)-4-(oxolan-2-ylmethoxy)phenyl]boronic Acid] reads 0.575 nM; that for `Nc1cnnc2cc(-c3cc(B(O)O)ccc3C(=O)N3CCCC3)ccc12` [Example 124, [3-(4-aminocinnolin-7-yl)-4-(pyrrolidine-1-carbonyl)phenyl]boronic Acid], 7.59 nM.
In the case of `Cc1nnc(N)c2ccc(-c3ccc(C(F)(F)F)c(B(O)O)c3)cc12` [Example 74, [5-(1-amino-4-methylphthalazin-6-yl)-2-(trifluoromethyl)phenyl]boronic Acid] it was 1.95 nM; in that of `COCCOCCOCCOCCOCCOCCOc1ccc(B(O)O)cc1-c1ccc2c(N)nnc(C)c2c1` [Example 16, [3-(1-amino-4-methylphthalazin-6-yl)-4-[2-[2-[2-[2-[2-(2-methoxyethoxy)ethoxy]ethoxy]ethoxy]ethoxy]ethoxy]phenyl]boronic Acid], 4.79 nM; in that of `COc1c(-c2ccc3c(N)cnnc3c2)cc(B(O)O)cc1C1CCOCC1` [Example 58, [3-(4-aminocinnolin-7-yl)-4-methoxy-5-(oxan-4-yl)phenyl]boronic Acid], 3.39 nM.
As for `COc1c(C)cc(-c2ccc3c(N)nnc(C)c3c2)cc1B(O)O` [Example 45, [5-(1-amino-4-methylphthalazin-6-yl)-2-methoxy-3-methylphenyl]boronic Acid], the IC50 is 0.562 nM.

The values are drawn from patent publication US12509474B2, “Inhibitors of complement factors and uses thereof” (Annexon, Inc., priority 2020, dated 2025).
